Results on one compound are retold here after patent US20060040905A1 (priority 2002, published 2006).

For series [1] the following is noted: in vivo; cited from earlier work.
In another series the test system is hot plate test. Conditions: in vivo; cited from earlier work.
Series [2] is described as follows: stability with excipients individually. The series is classed as physicochemical.
Series [3] in a line: stability in solution across pH range. It counts as physicochemical. Particulars: wide pH range (4-7) including pH 5.5-6.5. The text has this:
(§1) Nefopam may thus be rapidly and completely absorbed from the nasal cavity and provide the rapid onset of action required to bring pain relief.

Another series deals with mouse tail-flick test. Particulars: cited from earlier work.
For series [4], the system named is nasal epithelial cell-line (RPMI 2650). As to the kind of experiment: cytotoxicity against nasal epithelial cell-line. It counts as cell-based. Particulars: RPMI 2650 cells; even at high concentrations (>5 mM).
A further series can be described thus: solubility. It counts as physicochemical.
Text: as §1

Series [5] deals with Randall-Selitto pressure test. Particulars: rats; cited from earlier work.

Turning to `CN1CCOC(c2ccccc2)c2ccccc2C1` (racemic) [nefopam], in series [1], the elimination half-life result was “four”. For the same compound, the “activity in hot plate test” value in the series on hot plate test is reported as “not active”. Further, the “stability with all the excipients individually” value in series [2] (4 weeks incubation at 25° C.) and in series [2] (4 weeks incubation at 50° C.) was “demonstrated” in each case. For the same compound, in series [3], the stability in solution entry is “stable in solution”. Further, the “activity in mouse tail-flick test” value in the series on mouse tail-flick test is “not active”. Besides, the cytotoxicity entry in series [4] is “no cytotoxicity”. The solubility result in “solubility” is on record as “highly soluble”. Moreover, the “activity in Randall-Selitto pressure test” value in series [5] is reported as “not active”.
